Data taken from patent US20030181401A1, “Insulin secretion promoter” (KYOWA HAKKO KOGYO CO., LTD., priority 2002, published 2003).
Several values for one entry are separate records, joined by “and”; a condition that tells them apart may be missing. Equal entries are not always repeated.

Columns and labels:
Format in all cases: in vivo
[1] = test system: STZ-induced diabetic rats (Wistar); assay: Test Example 9: blood glucose in glucose tolerance test, Type I diabetes mellitus model
Protocol: Male 7-week-old Wistar rats (Japan SLC, Inc.) were fed CE-2 (Clea Japan, Inc.) for one week, so as to accustom the rats to the environment.
After 18-hour starvation of the accustomed rats, […] of 50 mM citrate buffer, pH 4.5containing 15 mg of streptozotocin (WAKO Pure Chemical Industries, Inc.; abbreviated as “STZ” hereinafter) was prepared and administered to 25 mg (STZ)/kg body weight from their tail vein. Five days after the STZ administration, the rats were fasted for 18 hours. Blood was taken from puncture in the tail vein to assay blood glucose with a simple-type blood glucose assay apparatus Medisafe Reader GR-101 (Terumo, Co., Ltd.), to select 5 rats (Nos. 1, 3, 4, 5, 8) at mild state of diabetes mellitus with a blood glucose level of 200 mg/dl or less.
An aqueous 2% solution of 2′-fucosyllactose was prepared and administered to the rat No. 1 from the tail vein to 50 mg/kg body weight on a 2′-FL dose basis. 0.9% physiological saline was administered to rats Nos. 3, 4, 5 and 8. Two hours after 2′-FL dosing, an aqueous 40% glucose solution was orally administered to 1 g/kg body weight to the rats for glucose tolerance test. Zero minute and 30, 60, 120, and 240 minutes after glucose loading, blood was taken from a tail vein, to assay blood glucose with Medisafe Reader GR-101 and collect the serum.
12 days after the STZ dosing, the rats were fasted for 18 hours. An aqueous 2% solution of 2′-FL at 50 mg (2′-FL)/kg body weight was administered to rats Nos. 3, 4, 5 and 8 on a 2′-FL dose basis through their tail veins. To the rat No. 1 was administered 0.9% physiological saline. Two hours after 2′-FL dosing, an aqueous 40% glucose solution was orally administered to 1 g (glucose)/kg body weight to the rats, for glucose tolerance test. Zero minute and 30, 60, 120, and 240 minutes after glucose loading, blood was taken from a tail vein, to assay blood glucose with Medisafe Reader GR-101 and collect the serum.

[2] = test system: ICR mice; assay: Test Example 8: blood glucose in glucose tolerance test after single oral 2′-FL dose
Protocol: Groups of male 8-week-old ICR mice (Japan SLC, Inc.) each consisting of 6 mice were fed CE-2 (Clea Japan, Inc.) for one week, so as to accustom the animals to the environment.
Then, the mice accustomed were fasted for 18 hours. An aqueous 2% solution of 2′-FL was orally administered to the mice to 100 mg (2′-FL)/kg body weight, while 0.9% saline was administered orally to the control group. Two hours after the 2′-FL dosing, an aqueous 40% glucose solution was orally administered to 2 g (glucose)/kg body weight to the mice, for glucose tolerance test. […] Blood glucose was assayed with a simple-type blood glucose assay apparatus Medisafe Reader GR-101 (Terumo, Co., Ltd.), while the serum was collected.

[3] = test system: ICR mice; assay: Test Example 6: serum glucose after intravenous saccharide with simultaneous oral glucose loading
Protocol: Groups of male 9-week-old ICR mice (Japan SLC, Inc.) each consisting of 7 mice were fed CE-2 (Clea Japan, Inc.) for one week, so as to accustom the animals to the environment. Then, the mice were fasted for 18 hours.
An aqueous 10% solution of 2′-FL or NeuAc was intravenously administered to the mice to 500 mg (saccharide)/kg body weight, while an aqueous 40% glucose solution was orally administered simultaneously to 2 g (glucose)/kg body weight, to the mice. To the control group, physiological saline was administered intravenously, while glucose was orally administered simultaneously to 2 g/kg body weight. Zero minute and 30 minutes after glucose loading, blood was taken from a tail vein. […] Blood was centrifuged (4° C., 10000 rpm, 10 minutes), to obtain serum.
Furthermore, the glucose concentration in the serum recovered was also assayed. The glucose concentration was assayed, using Glucose CII-TEST WAKO (WAKO Pure Chemical Industries, Ltd.). 2 μl of the recovered serum was placed in a 96-well plate, followed by addition of 200 μl of the chromogenic solution attached to the kit, for incubation at 37° C. for 10 minutes. After incubation, the absorbance at 490 nm was assayed with a plate reader. Herein, a standard curve was prepared by using aqueous 500 mg/dl glucose solution as the standard solution to dilute the standard solution appropriately for the same reaction as for the serum, and plotting the relation between the concentration and the absorbance (490 nm). Based on the prepared standard curve and the absorbance from the reaction with the serum, the glucose concentration in the serum was determined.

[4] = test system: ICR mice; assay: Test Example 7: serum insulin after intravenous 2′-FL dosing without glucose loading
Protocol: Groups of male 9-week-old ICR mice (Japan SLC, Inc.) each consisting of 7 mice were fed a commercially available CE-2 (Clea Japan, Inc.) for one week, so as to accustom the mice to the environment. Thereafter, an aqueous 1% solution of 2′-FL was intravenously administered to the mice to 50 mg (2′-FL)/kg body weight. The same volume of saline was administered to the control group. Zero minute and 30 minutes after dosing, blood was taken from a tail vein. […] Blood was centrifuged (4° C., 10000 rpm, 10 minutes), to obtain serum.
Insulin in the serum recovered was assayed by enzyme immunoassay using Lebis Insulin kit (for mice-T) (Shibayagi, Co., Ltd.) in the same manner as in the Test Example 2.

## 2′-fucosyllactose [2′-FL]
[1]; STZ-induced diabetic rats, glucose loading 2 hours after intravenous dosing
  increase of blood glucose level (in words): suppressed
[1]; individual STZ rats Nos. 1, 3, 4, 5, 8, 50 mg/kg intravenous two hours before glucose 1 g/kg oral, 0 minute, 50 mg/kg
  Blood glucose level after glucose loading, 0 minute: 135 mg/dL and 186 mg/dL and 97 mg/dL and 134 mg/dL and 138 mg/dL
[1]; individual STZ rats Nos. 1, 3, 4, 5, 8, 50 mg/kg intravenous two hours before glucose 1 g/kg oral, 30 minutes, 50 mg/kg
  Blood glucose level after glucose loading, 30 minutes: 167 mg/dL and 273 mg/dL and 237 mg/dL and 162 mg/dL and 152 mg/dL
[1]; individual STZ rats Nos. 1, 3, 4, 5, 8, 50 mg/kg intravenous two hours before glucose 1 g/kg oral, 60 minutes, 50 mg/kg
  Blood glucose level after glucose loading, 60 minutes: 172 mg/dL and 355 mg/dL and 253 mg/dL and 154 mg/dL and 158 mg/dL
[1]; individual STZ rats Nos. 1, 3, 4, 5, 8, 50 mg/kg intravenous two hours before glucose 1 g/kg oral, 120 minutes, 50 mg/kg
  Blood glucose level after glucose loading, 120 minutes: 181 mg/dL and 342 mg/dL and 224 mg/dL and 161 mg/dL and 136 mg/dL
[1]; individual STZ rats Nos. 1, 3, 4, 5, 8, 50 mg/kg intravenous two hours before glucose 1 g/kg oral, 240 minutes, 50 mg/kg
  Blood glucose level after glucose loading, 240 minutes: 146 mg/dl and 328 mg/dl and 139 mg/dl (2×) and 50 mg/dl
[1]; individual STZ rats Nos. 1, 3, 4, 5, 8, 50 mg/kg intravenous two hours before glucose 1 g/kg oral, −120 minutes, 50 mg/kg
  Blood glucose level after glucose loading, −120 minutes: 108 mg/dL and 197 mg/dL and 122 mg/dL and 121 mg/dL and 117 mg/dL
[2]; ICR mice fasted 18 hours, 100 mg/kg single oral dose two hours before glucose 2 g/kg oral, 0 minute, mean ± SD
  Blood glucose level after glucose loading, 0 minute: 109 ± 4.4 mg/dL
[2]; ICR mice fasted 18 hours, 100 mg/kg single oral dose two hours before glucose 2 g/kg oral, 60 minutes, mean ± SD
  Blood glucose level after glucose loading, 60 minutes: 219 ± 29 mg/dL
[2]; ICR mice fasted 18 hours, 100 mg/kg single oral dose two hours before glucose 2 g/kg oral, 120 minutes, mean ± SD
  Blood glucose level after glucose loading, 120 minutes: 147 ± 14.2 mg/dL
[2]; ICR mice fasted 18 hours, 100 mg/kg single oral dose two hours before glucose 2 g/kg oral, −120 minutes, mean ± SD
  Blood glucose level after glucose loading, −120 minutes: 131 ± 23.6 mg/dL
[2]; ICR mice, single oral dosing 120 minutes before glucose dosing
  elevation of blood glucose level (in words): suppressed
[3]; ICR mice fasted 18 hours, 500 mg/kg intravenous with simultaneous glucose 2 g/kg oral, 30 minutes, mean ± SD
  Serum glucose concentration after glucose loading, 30 minutes: 331.4 ± 68.6 mg/dL
[3]; ICR mice fasted 18 hours, 500 mg/kg intravenous with simultaneous glucose 2 g/kg oral, 120 minutes, mean ± SD
  Serum glucose concentration after glucose loading, 120 minutes: 169.2 ± 29.5 mg/dL
[3]; ICR mice fasted 18 hours, 500 mg/kg intravenous with simultaneous glucose 2 g/kg oral, zero minute, mean ± SD
  Serum glucose concentration after glucose loading, Zero minute: 102.4 ± 23.3 mg/dL
[3]; ICR mice, intravenous dosing
  increase of the serum glucose concentration compared with the control group (in words): suppressed
[4]; 50 mg/kg intravenous, no glucose loading, 30 minutes after dosing, mean ± SD
  Serum insulin concentration after 2′-FL dosing, 30 minutes: 168.6 ± 40.2 pg/mL
[4]; 50 mg/kg intravenous, no glucose loading, 120 minutes after dosing, mean ± SD
  Serum insulin concentration after 2′-FL dosing, 120 minutes: 2035.9 ± 1098.0 pg/mL
[4]; intravenous 2′-FL dosing
  serum insulin concentration compared with the control group (in words): increased
